# Ends that are not written are not given here.
# Legend:
# [1] = test system: 3T3-L1 Adipocytes; test: Free fatty acid levels in cultured mouse 3T3-L1 adipocytes, isoproterenol stimulated (Example 17); assay type: cell-based; details: isoproterenol 1 nM
# Method: Mouse 3T3-L1 cells were seeded at a density between 1,000-20,000 cells per well on 96-well, 48-well, or 24-well plates in Pre-adipocyte Medium (Zen-Bio, Durham, N.C.) and grown to confluence at 37° C. in a humidified atmosphere of 5% CO2/95% air. Two days after confluence, cells were placed in Adipocyte Differentiation Medium (Zen-Bio, Durham, N.C.) and cultured for three additional days at 37° C. in a humidified atmosphere of 5% CO2/95% air. The culture media was then replaced with Adipocyte Maintenance Medium (Zen-Bio) and the cells were maintained for an additional 9-14 days at 37° C. in a humidified atmosphere of 5% CO2/95% air with partial medium replacement every other day. Following 12-17 days of differentiation, test peptides were added at a final concentration of 25-50 μM and incubated for 18-20 hours in Adipocyte Maintenance Medium at 37° C. in a humidified atmosphere of 5% CO2/95%. After the media incubation, media was removed and exchanged with Assay Buffer (Zen-Bio) containing isoproterenol (1 nM) (added to all samples except untreated controls) and the test peptides. Cells were incubated for a further 3 hours at 37° C. in a humidified atmosphere of 5% CO2/95%. Free fatty acid concentrations in the media were determined using a Free Fatty Acid Assay Kit (Zen-Bio) according to the manufacturer's instructions using a plate reader (540 nm).
# Absorbance values were corrected for untreated background and expressed relative to isoproterenol treated cells. Treatment with isoproterenol (1 nM) alone was used as the free fatty acid level stimulatory control. The relative standard deviation of the isoproterenol control was <10%. […] Free fatty acid levels for insulin (100 nM) treatment were <5% of the isoproterenol control value.
# [2] = test system: 3T3-L1 Adipocytes; test: Free fatty acid levels in cultured mouse 3T3-L1 adipocytes, isoproterenol stimulated (Example 2); assay type: cell-based; details: test peptides 25 μM; isoproterenol 1 nM
# Procedure, shortened: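 3T3-L1 cells differentiated 12–17 days into adipocytes, then exposed to test peptides at 25 μM final for 18–20 h, then 1 h, then 3 h with isoproterenol (1 nM) at 37 °C. Free fatty acids in the medium measured colorimetrically at 540 nm, corrected for untreated background and expressed relative to isoproterenol-only cells.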
# [3] = test system: Human Primary Adipocytes; test: Free fatty acid levels in cultured human primary adipocytes, forskolin stimulated (Example 5); assay type: cell-based; details: test peptides 25 μM; forskolin 1 μM
# Method: Human primary adipocytes were seeded at 5,000-100,000 cells per well on 96-well, 48-well, or 24-well plate in Pre-adipocyte Medium (Zen-Bio, Durham, N.C.) and grown to confluence at 37° C. in a humidified atmosphere of 5% CO2/95% air. Two days after confluence, cells were placed in Adipocyte Differentiation Medium (Zen-Bio, Durham, N.C.) and cultured for three additional days at 37° C. in a humidified atmosphere of 5% CO2/95% air. The culture media was then replaced with Adipocyte Maintenance Medium (Zen-Bio) and the cells were maintained for an additional 11-21 days at 37° C. in a humidified atmosphere of 5% CO2/95% air with partial medium replacement every other day. Following 14-24 days of differentiation, test peptides were added at a final concentration of 25 μM and incubated for 18-20 hours in Adipocyte Maintenance Medium at 37° C. in a humidified atmosphere of 5% CO2/95%. After 18-20 hours, the media was exchanged with fresh Adipocyte Maintenance Medium containing test peptides and incubated for 1 h at 37° C. in a humidified atmosphere of 5% CO2/95%. After 1 h media was exchanged with Assay Buffer (Zen-Bio) containing forskolin (1 μM) (added to all samples except untreated controls) and test peptides. Cells were incubated for a further 3 hours at 37° C. in a humidified atmosphere of 5% CO2/95%. Free fatty acid concentrations in the media were determined using a Free Fatty Acid Assay Kit (Zen-Bio) according to the manufacturer's instructions using a plate reader (540 nm). Absorbance values were corrected for untreated background and expressed relative to forskolin treated cells. Treatment with forskolin (1 μM) alone was used as the free fatty acid level stimulatory control. The relative standard deviation of the forskolin control was <20%. […] Free fatty acid levels for insulin (100 nM) treatment were <8% of the forskolin control value.
# [4] = Stability in mouse plasma, peptides 100 uM (Example 14); assay type: in vitro ADME; details: mouse plasma 37° C., peptide 100 uM
# Method: Peptides (100 uM) were incubated in pooled mouse plasma at 37° C. and samples were removed and immediately analyzed for the concentration of intact peptide by LC/MS/MS over the course of 3 hours. The percent of peptide remaining in plasma at each time point was calculated relative to the initial peak area (Table 12).
# [5] = test system: Diet Induced Obese (DIO) mice; test: Body weight, blood glucose and fat mass in Diet Induced Obese mice, 10 days (Example 6); assay type: in vivo, Male C57BL/6 mice; details: male DIO mice; 10 days twice daily intraperitoneal 15 mg/kg; N = 8; mean
# Method: Animals were randomized to treatment groups based on blood glucose levels and body weight. The peptides of the invention were administered to two groups of male DIG mice once or twice daily by subcutaneous or intraperitoneal injection at a dose of 15 mg/kg/dose for 10 days (N=8 animals per treatment group). An additional group of male DIG mice (n=8) received vehicle (water or saline) alone. Body weight, blood glucose levels and food intake were monitored. Body mass distribution (fat vs lean) was determined by quantitative whole body NMR prior to dosing and at the end of dosing.
# [6] = test system: 3T3-L1 Adipocytes; test: Free fatty acid levels in cultured mouse 3T3-L1 adipocytes, forskolin stimulated (Example 3); assay type: cell-based; details: test peptides 25 μM; forskolin 1 μM
# Method: Mouse 3T3-L1 cells were seeded at 1,000-20,000 cells per well on 96-well, 48-well, or 24-well plates in Pre-adipocyte Medium (Zen-Bio, Durham, N.C.) and grown to confluence at 37° C. in a humidified atmosphere of 5% CO2/95% air. Two days after confluence, cells were placed in Adipocyte Differentiation Medium (Zen-Bio, Durham, N.C.) and cultured for three additional days at 37° C. in a humidified atmosphere of 5% CO2/95% air. The culture media was then replaced with Adipocyte Maintenance Medium (Zen-Bio) and the cells were maintained for an additional 9-14 days at 37° C. in a humidified atmosphere of 5% CO2/95% air with partial medium replacement every other day. Following 12-17 days of differentiation, test peptides were added at a final concentration of 25 μM and incubated for 18-20 hours in Adipocyte Maintenance Medium at 37° C. in a humidified atmosphere of 5% CO2/95%. After 18-20 hours, the media was exchanged with fresh Adipocyte Maintenance Medium containing test peptides and incubated for 1 h at 37° C. in a humidified atmosphere of 5% CO2/95%. After 1 h media was exchanged with Assay Buffer (Zen-Bio) containing forskolin (1 μM) (added to all samples except untreated controls) and test peptides. Cells were incubated for a further 3 hours at 37° C. in a humidified atmosphere of 5% CO2/95%. Free fatty acid concentrations in the media were determined using a Free Fatty Acid Assay Kit (Zen-Bio) according to the manufacturer's instructions using a plate reader (540 nm). Absorbance values were corrected for untreated background and expressed relative to forskolin treated cells. Treatment with forskolin (1 μM) alone was used as the free fatty acid level stimulatory control. The relative standard deviation of the forskolin control was <10%. […] Free fatty acid levels for insulin (100 nM) treatment were <9% of the forskolin control value.
substance,measurement,setting,value
372 (PEG600-KWQEMNYIFYP) [compound 372],Free Fatty Acid Levels in 3T3-L1 Adipocytes Expressed as a Percent of Isoproterenol Control: Percent of Control Value,[1]; Peptide Concentration 50 μM,168.0%
H-QEMNYIFYP-OH [compound 363],Free Fatty Acid Levels in 3T3-L1 Adipocytes Expressed as a Percent of Isoproterenol Control: Percent of Control Value,[1]; Peptide Concentration 25 μM,131.5%
359 (RWQEMNYIFYPRK-biotin; not fully specified (residue 13); printed as RWQEMNYIFYPRK-(Biotin)) [compound 359],Free Fatty Acid Levels in 3T3-L1 Adipocytes Expressed as a Percent of Isoproterenol Control: Percent of Control Value,[1]; Peptide Concentration 25 μM,34.8%
368 (PEG600-KNYIFYPR) [compound 368],Free Fatty Acid Levels in 3T3-L1 Adipocytes Expressed as a Percent of Isoproterenol Control: Percent of Control Value,[1]; Peptide Concentration 50 μM,70.0%
H-RWQEMNYIFYPR-NH2 [compound 354],Free Fatty Acid Levels in 3T3-L1 Adipocytes Expressed as a Percent of Isoproterenol Control: Percent of Control Value,[1]; Peptide Concentration 25 μM,92.3%
370 (PEG600-KWQEMNYIFYPR) [compound 370],Free Fatty Acid Levels in 3T3-L1 Adipocytes Expressed as a Percent of Isoproterenol Control: Percent of Control Value,[1]; Peptide Concentration 50 μM,129.0%
H-WQEMNYIFY-OH [compound 365],Free Fatty Acid Levels in 3T3-L1 Adipocytes Expressed as a Percent of Isoproterenol Control: Percent of Control Value,[1]; Peptide Concentration 25 μM,85.6%
H-QEMNYIFYPR-OH [compound 366],Free Fatty Acid Levels in 3T3-L1 Adipocytes Expressed as a Percent of Isoproterenol Control: Percent of Control Value,[1]; Peptide Concentration 25 μM,82.0%
H-RWQEMGYIFYPRALR-OH [compound 215],Free Fatty Acid Levels in 3T3-L1 Adipocytes Expressed as a Percent of Isoproterenol Control: Percent of Control Value,[2],27.2%
same,Free Fatty Acid Levels in Human Primary Adipocytes Expressed as a Percent of Forskolin Control: Percent of Control Value,[3],102%
same,% Remaining at Each Time Point: 0 min,[4]; 0 min,100%
same,"remaining at 0.25 h, 100 uM","[4]; pooled mouse plasma, 15 min, read-out: % Remaining at Each Time Point: 15 min",71.2%
same,"remaining at 0.5 h, 100 uM","[4]; pooled mouse plasma, 30 min, read-out: % Remaining at Each Time Point: 30 min",37.1%
same,"remaining at 1 h, 100 uM","[4]; pooled mouse plasma, 60 min, read-out: % Remaining at Each Time Point: 60 min",42.1%
same,"remaining at 2 h, 100 uM","[4]; pooled mouse plasma, 120 min, read-out: % Remaining at Each Time Point: 120 min",15.4%
same,"remaining at 3 h, 100 uM","[4]; pooled mouse plasma, 180 min, read-out: % Remaining at Each Time Point: 180 min",6.98%
same,Difference from Vehicle Control: Decrease from Baseline in Blood Glucose,[5],16.4 mg/dL
same,Difference from Vehicle Control: Decrease from Baseline in Body Weight (%),[5],2.31%
same,Difference from Vehicle Control: Decrease from Baseline in Fat Mass,[5],0.67 g
same,Free Fatty Acid Levels in 3T3-L1 Adipocytes Expressed as a Percent of Forskolin Control: Percent of Control Value,[6],37.4%

# — patent publication US11753445B2, “Therapeutic peptides” (COHBAR, INC., priority 2016, dated 2023)
